This is an account of results in patent US20230391786A1, “cGAS INHIBITORS” (Eli Lilly and Company, priority 2022, published 2023).

Molecules are shown by their SMILES.

In the first experiment the target is recombinant human cGAS (Homo sapiens (Human), UniProt Q8N884). In words: In vitro inhibition assay of cGAS activity (cGAMP production, RapidFire mass spectrometry). In kind it is biochemical. As to conditions: 10 nM recombinant human cGAS, 60 nM 75-bp dsDNA, ATP, GTP, room temperature 3 hours, read-out: IC50 (μM), In vitro inhibition assay for Compounds 1-94. As for the experimental part: Expression and Purification of Recombinant cGAS Protein: Insert cDNA encoding full-length of human cGAS into a modified bacterial expression vector containing an in-frame His6-tag. Induce the E. coli strain BL21(DE3) harboring the plasmid with 1 mM IPTG (Isopropyl β-D-1-thiogalactopyranoside) at 18° C. overnight. Purify the His6-tagged cGAS protein over HISpur Ni-NTA resin in the presence of benzonase and RNase followed by Superdex 200 size exclusion chromatography with storage buffer (50 mM Tris-HCl pH 7.5, 300 mM NaCl, 1 mM DTT, 10% glycerol).
Chain of recombinant human cGAS (Q8N884 whole entry): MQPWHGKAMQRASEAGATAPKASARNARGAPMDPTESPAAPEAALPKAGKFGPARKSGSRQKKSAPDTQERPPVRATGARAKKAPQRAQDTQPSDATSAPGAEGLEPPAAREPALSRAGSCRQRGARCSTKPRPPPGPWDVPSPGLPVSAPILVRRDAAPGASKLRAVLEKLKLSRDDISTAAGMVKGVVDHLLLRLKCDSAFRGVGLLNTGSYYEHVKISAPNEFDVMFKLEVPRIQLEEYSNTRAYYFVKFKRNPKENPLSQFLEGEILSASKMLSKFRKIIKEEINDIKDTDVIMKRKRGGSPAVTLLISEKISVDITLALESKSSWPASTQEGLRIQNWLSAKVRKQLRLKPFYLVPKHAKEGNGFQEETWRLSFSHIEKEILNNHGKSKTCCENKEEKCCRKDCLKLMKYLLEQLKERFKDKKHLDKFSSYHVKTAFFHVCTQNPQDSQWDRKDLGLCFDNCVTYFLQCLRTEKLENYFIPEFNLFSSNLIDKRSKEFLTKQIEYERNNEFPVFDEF
In vitro inhibition assay of cGAS activity: Add a 5 μL mixture containing 10 mM Tris-Cl pH 7.5, 50 mM NaCl, 5 mM MgCl2, 1 mM DTT, 0.01% Triton X-100, 60 nM 75-bp dsDNA, […], 50 μM GTP, 10 nM of recombinant human cGAS, and serial dilutions of a test compound in DMSO to a 384-well plate and incubate at room temperature for 3 hours. Quench the reaction by the addition of 100 μL of stop solution containing 0.1% formic acid and 0.1 μM internal standard (3′3′-difluoro cGAMP). Measure the amount of cGAMP produced by RapidFire 365 mass spectrometry and evaluate inhibitory effect of a compound by plotting percent specific inhibition of cGAMP production against log concentration of the test compound. Calculate IC50 values using a 4-parameter non-linear logistic equation (y=(S0+((SInf−S0)/(1+((qAC50/x)^nHill))))).
On to `NC(=O)CNc1cc(Cl)c(Cl)c2[nH]cc(-c3cn[nH]c3)c12` [Example 64, 2-[[6,7-Dichloro-3-(1H-pyrazol-4-yl)-1H-indol-4-yl]amino] acetamide], for which the IC50 (in general, the midpoint of a concentration-inhibition curve) was found to be 0.0486 µM. With `O=C(CO)Nc1cc(Cl)c(Cl)c2[nH]cc(-c3cn[nH]c3)c12` [Example 65, N-[6,7-Dichloro-3-(1H-pyrazol-4-yl)-1H-indol-4-yl]-2-hydroxy-acetamide], the IC50 came to 0.0158 µM. For the molecule `CC(=O)Nc1cc(Cl)c(Cl)c2[nH]cc(-c3cn[nH]c3)c12` [Example 66, N-[6,7-Dichloro-3-(1H-pyrazol-4-yl)-1H-indol-4-yl]acetamide], the 50% inhibitory concentration (IC50) worked out at 0.0349 µM.

On to `O[C@H]1C[C@@H](Nc2cc(Cl)c(Cl)c3[nH]cc(-c4cn[nH]c4)c23)C1` [Example 67, (cis)-3-((6,7-Dichloro-3-(1H-pyrazol-4-yl)-1H-indol-4-yl)amino)cyclobutanol], for which the IC50 amounted to 0.0371 µM. In the case of `O=C1CCc2c(-c3cn[nH]c3)c3ccc(Cl)c(Cl)c3n21` [Example 68, 7,8-Dichloro-4-(1H-pyrazol-4-yl)-2,3-dihydropyrrolo[1,2-a] indol-1-one], the IC50 is 0.0965 µM. For `Clc1ccc2c(-c3cn[nH]c3)c3n(c2c1Cl)CCC(c1nn[nH]n1)C3` (stereo not drawn) [Example 69, 3,4-Dichloro-10-(1H-pyrazol-4-yl)-8-(1H-tetrazol-5-yl)-6,7,8,9-tetrahydropyrido[1,2-a]indole], the half-maximal inhibitory concentration (IC50) is 0.0449 µM. Still for that read-out and setting: as for `N#CCOc1cc(Cl)c(F)c2[nH]cc(-c3cn[nH]c3)c12` [Example 70, 2-[[6-Chloro-7-fluoro-3-(1H-pyrazol-4-yl)-1H-indol-4-yl]oxy] acetonitrile], the figure is 0.0173 µM. As for `NC(=O)COc1cc(Cl)c(F)c2[nH]cc(-c3cn[nH]c3)c12` [Example 71, 2-[[6-Chloro-7-fluoro-3-(1H-pyrazol-4-yl)-1H-indol-4-yl]oxy] acetamide], the IC50 came out at 0.0463 µM.

Take `N#CCOc1cc(Cl)c(F)c2[nH]cc(-n3ccnc3)c12` [Example 72, 2-[(6-Chloro-7-fluoro-3-imidazol-1-yl-1H-indol-4-yl)oxy]acetonitrile]: the IC50 amounted to 0.0772 µM. Turning to `OCCC1CCc2c(-c3cn[nH]c3)c3ccc(Cl)c(Cl)c3n2C1` (stereo not drawn) [Example 73, 2-[3,4-Dichloro-10-(1H-pyrazol-4-yl)-6,7,8,9-tetrahydropyrido[1,2-a]indol-7-yl] ethanol], the IC50 came out at 0.062 µM. As for `O=C1CCCN1C1CCc2c(-c3cn[nH]c3)c3ccc(Cl)c(Cl)c3n2C1` (stereo not drawn) [Example 74, 1-[3,4-Dichloro-10-(1H-pyrazol-4-yl)-6,7,8,9-tetrahydropyrido[1,2-a]indol-7-yl]pyrrolidin-2-one], the IC50 is 0.0847 µM. With `CN1Cc2c(-c3cn[nH]c3)c3ccc(Cl)c(Cl)c3n2CC1=O` [Example 75, 6,7-Dichloro-2-methyl-10-(1H-pyrazol-4-yl)-1,2-dihydropyrazino[1,2-a]indol-3(4H)-one], the IC50 came out at 0.045 µM. Take `O=C1Cn2c(c(-c3cn[nH]c3)c3ccc(Cl)c(Cl)c32)CN1CCO` [Example 76, 6,7-Dichloro-2-(2-hydroxyethyl)-10-(1H-pyrazol-4-yl)-1,2-dihydropyrazino[1,2-a]indol-3(4H)-one]: the IC50 was 0.0452 µM. On the same count and under the same terms, as for `O=C(O)C1CCCc2c(-c3cn[nH]c3)c3ccc(Cl)c(Cl)c3n2C1` (stereo not drawn) [Example 77, 3,4-Dichloro-11-(1H-pyrazol-4-yl)-7,8,9,10-tetrahydro-6H-azepino[1,2-a]indole-7-carboxylic acid], the figure is 0.0157 µM. `OC1CCCc2c(-c3cn[nH]c3)c3ccc(Cl)c(Cl)c3n2C1` (stereo not drawn) [Example 78, 3,4-Dichloro-11-(1H-pyrazol-4-yl)-7,8,9,10-tetrahydro-6H-azepino[1,2-a]indol-7-ol]: the half-maximal inhibitory concentration (IC50) worked out at 0.0427 µM. Still for that read-out and setting: the result for `O=C1Cn2c(c(-c3cn[nH]c3)c3ccc(Cl)c(Cl)c32)CCN1CCO` [Example 79, 7,8-Dichloro-3-(2-hydroxyethyl)-11-(1H-pyrazol-4-yl)-2,3-dihydro-1H-[1,4]diazepino[1,7-a]indol-4(5H)-one] reads 0.0753 µM.

On to `O=C1NC(CO)Cn2c1c(-c1cn[nH]c1)c1ccc(Cl)c(Cl)c12` (stereo not drawn) [Example 80, 6,7-Dichloro-3-(hydroxymethyl)-10-(1H-pyrazol-4-yl)-3,4-dihydro-2H-pyrazino[1,2-a] indol-1-one], for which the IC50 came to 0.0818 µM.

Turning to `CN1CCOCC1CC(=O)N1CCn2c(c(-c3cn[nH]c3)c3ccc(Cl)c(Cl)c32)C1` (stereo not drawn) [Example 81, 1-[6,7-Dichloro-10-(1H-pyrazol-4-yl)-3,4-dihydro-1H-pyrazino[1,2-a]indol-2-yl]-2-(4-methylmorpholin-3-yl)ethanone], the IC50 is 0.0223 µM.

Turning to `CC(=O)N1CCOC(CC(=O)N2CCn3c(c(-c4cn[nH]c4)c4ccc(Cl)c(Cl)c43)C2)C1` (stereo not drawn) [Example 82, 2-(4-Acetylmorpholin-2-yl)-1-[6,7-dichloro-10-(1H-pyrazol-4-yl)-3,4-dihydro-1H-pyrazino[1,2-a]indol-2-yl]ethanone], the IC50 came to 0.046 µM. For `CN1CCn2c(c(-c3cn[nH]c3)c3ccc(Cl)c(Cl)c32)C1=O` [Example 83, 6,7-Dichloro-2-methyl-10-(1H-pyrazol-4-yl)-3,4-dihydropyrazino[1,2-a]indol-1-one], the IC50 came out at 0.0754 µM. `CS(=O)(=O)NCCn1cc(-c2cn[nH]c2)c2c(OCC#N)cc(Cl)c(Cl)c21` [Example 84, N-[2-[6,7-Dichloro-4-(cyanomethoxy)-3-(1H-pyrazol-4-yl)indol-1-yl]ethyl]methanesulfonamide]: the IC50 was determined as 0.0815 µM. `CN1CCn2c(c(-c3cn[nH]c3)c3c(OCC#N)cc(Cl)c(Cl)c32)C1=O` [Example 85, 2-((6,7-Dichloro-2-methyl-1-oxo-10-(1H-pyrazol-4-yl)-1,2,3,4-tetrahydropyrazino[1,2-a]indol-9-yl)oxy)acetonitrile]: the IC50 came to 0.0257 µM. Regarding `CN1CCn2c(c(-c3cn[nH]c3)c3c(NCC#N)cc(Cl)c(Cl)c32)C1=O` [Example 86, 2-[[6,7-Dichloro-2-methyl-1-oxo-10-(1H-pyrazol-4-yl)-3,4-dihydropyrazino[1,2-a]indol-9-yl]amino]acetonitrile], the IC50 was found to be 0.0485 µM.

`CN1CCn2c(c(-c3cn[nH]c3)c3c(NCCO)cc(Cl)c(Cl)c32)C1=O` [Example 87, 6,7-Dichloro-9-((2-hydroxyethyl)amino)-2-methyl-10-(1H-pyrazol-4-yl)-3,4-dihydropyrazino[1,2-a]indol-1(2H)-one]: the IC50 was determined as 0.029 µM. For the molecule `N#CCOc1cc(Cl)c(Cl)c2c1c(-c1cn[nH]c1)c1n2CCNC1` [Example 88, 2-((6,7-Dichloro-10-(1H-pyrazol-4-yl)-1,2,3,4-tetrahydropyrazino[1,2-a]indol-9-yl)oxy)acetonitrile], the concentration for half-maximal inhibition (IC50) is 0.0219 µM. Consider `N#CCOc1cc(Cl)c(Cl)c2c1c(-c1cn[nH]c1)c1n2CCN(C(=O)CO)C1` [Example 89, 2-((6,7-Dichloro-2-(2-hydroxyacetyl)-10-(1H-pyrazol-4-yl)-1,2,3,4-tetrahydropyrazino[1,2-a]indol-9-yl)oxy)acetonitrile], for which the half-inhibitory concentration (IC50) turned out to be 0.0112 µM. On to `CCOc1cc(Cl)c(Cl)c2c1c(-c1cn[nH]c1)c1n2CCNC1` [Example 90, 6,7-Dichloro-9-ethoxy-10-(1H-pyrazol-4-yl)-1,2,3,4-tetrahydropyrazino[1,2-a]indole], for which the IC50 was 0.0587 µM.

Turning to `CCOc1cc(Cl)c(Cl)c2c1c(-c1cn[nH]c1)c1n2CCN(C(=O)CO)C1` [Example 91, 1-[6,7-Dichloro-9-ethoxy-10-(1H-pyrazol-4-yl)-3,4-dihydro-1H-pyrazino[1,2-a]indol-2-yl]-2-hydroxy-ethanone], the IC50 is 0.0405 µM. Take `N#CCNc1cc(Cl)c(Cl)c2c1c(-c1cn[nH]c1)c1n2CCN(C(=O)CO)C1` [Example 92, 2-[[6,7-Dichloro-2-(2-hydroxyacetyl)-10-(1H-pyrazol-4-yl)-3,4-dihydro-1H-pyrazino[1,2-a]indol-9-yl]amino]acetonitrile]: the IC50 turned out to be 0.0287 µM. With `N#Cc1c(Cl)ccc2c(-c3cn[nH]c3)c[nH]c12` [Example 93, 6-Chloro-3-(1H-pyrazol-4-yl)-1H-indole-7-carbonitrile], the IC50 came to 0.18 µM. As for `Nc1nnc(-c2[nH]c3c(Cl)c(Cl)ccc3c2-c2cn[nH]c2)o1` [Example 94, 5-[6,7-Dichloro-3-(1H-pyrazol-4-yl)-1H-indol-2-yl]-1,3,4-oxadiazol-2-amine], the IC50 was determined as 0.0224 µM.

Still in this experiment, the particulars now being: 10 nM recombinant human cGAS, 60 nM 75-bp dsDNA, ATP, GTP, room temperature 3 hours, read-out: IC50 (μM), In vitro inhibition assay for Compounds 95-348.
Regarding `O=C1Cn2c(c(-c3cn[nH]c3)c3ccc(Cl)c(Cl)c32)CC(CO)N1` (stereo not drawn) [Example 101, 7,8-Dichloro-2-(hydroxymethyl)-11-(1H-pyrazol-4-yl)-2,3-dihydro-1H-[1,4]diazepino[1,7-a]indol-4(5H)-one], the IC50 was found to be 0.0705 µM. Take `O=C(NCc1[nH]c2c(Cl)c(Cl)ccc2c1-c1cn[nH]c1)c1cscn1` [Example 104, N-((6,7-Dichloro-3-(1H-pyrazol-4-yl)-1H-indol-2-yl)methyl)thiazole-4-carboxamide]: the IC50 worked out at 0.0872 µM.
